What was measured:
[1] = target: T1, Cholesteryl ester transfer protein (Oryctolagus cuniculus) (UniProt P22687); assay: Inhibition of Oryctolagus cuniculus (rabbit) CETP-mediated cholesteryl ester transfer at 10 uM after 1 hr by fluorescence assay
T1 sequence (whole entry): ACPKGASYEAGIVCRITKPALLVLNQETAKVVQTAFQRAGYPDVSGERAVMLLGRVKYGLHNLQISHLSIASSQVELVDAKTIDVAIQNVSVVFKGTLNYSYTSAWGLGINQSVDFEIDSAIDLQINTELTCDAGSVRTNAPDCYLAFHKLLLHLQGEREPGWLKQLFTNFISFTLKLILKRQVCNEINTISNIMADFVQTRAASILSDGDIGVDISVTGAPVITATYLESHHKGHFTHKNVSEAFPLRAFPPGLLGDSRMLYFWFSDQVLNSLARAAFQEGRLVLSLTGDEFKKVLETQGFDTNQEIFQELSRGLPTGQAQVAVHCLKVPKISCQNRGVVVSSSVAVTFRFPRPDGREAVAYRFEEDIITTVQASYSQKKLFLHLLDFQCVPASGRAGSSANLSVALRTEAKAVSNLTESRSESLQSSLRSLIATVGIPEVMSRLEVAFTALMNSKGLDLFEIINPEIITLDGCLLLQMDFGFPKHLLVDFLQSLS

[2] = target: T2, Cholesteryl ester transfer protein (Oryctolagus cuniculus, UniProt P22687); assay: Inhibition of Oryctolagus cuniculus (rabbit) CETP-mediated cholesteryl ester transfer after 1 hr by fluorescence assay
T2 sequence (P22687 whole entry): T1 sequence (whole entry)

Row | inhibition [1] [%] | IC50 [2] [µM] | Compound
1 | 42.6 | 10.5 | Cc1ccc(S(=O)(=O)N(c2ccc(OCc3cccc(Cl)c3)cc2)S(=O)(=O)c2ccc(C)cc2)cc1
2 | 37.5 | 13.2 | Cc1ccc(S(=O)(=O)N(c2ccc(OCc3ccc(Cl)cc3)cc2)S(=O)(=O)c2ccc(C)cc2)cc1
3 | 23 | – | Cc1ccc(S(=O)(=O)Nc2ccc(OCc3ccc(Cl)cc3)cc2)cc1
4 | 9.9 | – | Cc1ccc(S(=O)(=O)Nc2ccc(OCc3ccc(C(F)(F)F)cc3)cc2)cc1
5 | 23.1 | – | Cc1ccc(S(=O)(=O)Oc2ccc(N(Cc3cccc(Br)c3)Cc3cccc(Br)c3)cc2)cc1
6 | 39 | 11.1 | Cc1ccc(S(=O)(=O)N(c2ccc(OCc3cccc(C(F)(F)F)c3)cc2)S(=O)(=O)c2ccc(C)cc2)cc1
7 | 31.9 | 28.5 | Cc1ccc(S(=O)(=O)Oc2ccc(N(Cc3cccc(Cl)c3)Cc3cccc(Cl)c3)cc2)cc1
8 | 24.9 | – | Cc1ccc(S(=O)(=O)Oc2ccc(N(Cc3ccc(Cl)cc3)Cc3ccc(Cl)cc3)cc2)cc1
9 | 22.3 | – | Cc1ccc(CN(Cc2ccc(C)cc2)c2ccc(OS(=O)(=O)c3ccc(C)cc3)cc2)cc1
10 | 15.5 | – | Cc1ccc(S(=O)(=O)Nc2ccc(OCc3ccc([N+](=O)[O-])cc3)cc2)cc1
11 | 29.6 | – | Cc1ccc(S(=O)(=O)Nc2ccc(OCc3cccc(Cl)c3)cc2)cc1
12 | 29.9 | – | Cc1ccc(S(=O)(=O)Oc2ccc(NCc3cccc([N+](=O)[O-])c3)cc2)cc1
13 | 29 | – | Cc1ccc(S(=O)(=O)Oc2ccc(N(Cc3cccc(C)c3)Cc3cccc(C)c3)cc2)cc1
14 | 22.8 | – | COc1cccc(COc2ccc(NS(=O)(=O)c3ccc(C)cc3)cc2)c1
15 | 66.9 | 3.4 | Cc1ccc(S(=O)(=O)N(c2ccc(OCc3cccc(C)c3)cc2)S(=O)(=O)c2ccc(C)cc2)cc1
16 | 31.3 | 30.1 | Cc1ccc(S(=O)(=O)Oc2ccc(NCc3cccc(C)c3)cc2)cc1
17 | 9.3 | – | Cc1ccc(S(=O)(=O)Oc2ccc(N(Cc3ccc([N+](=O)[O-])cc3)Cc3ccc([N+](=O)[O-])cc3)cc2)cc1
18 | 0 | – | Cc1ccc(COc2ccc(NS(=O)(=O)c3ccc(C)cc3)cc2)cc1
19 | 10.2 | – | Cc1ccc(S(=O)(=O)Nc2ccc(OCc3ccc(Br)cc3)cc2)cc1
20 | 24.7 | – | Cc1ccc(S(=O)(=O)Oc2ccc(N(Cc3cccc(C(F)(F)F)c3)Cc3cccc(C(F)(F)F)c3)cc2)cc1
21 | 65.3 | 3.9 | COc1cccc(COc2ccc(N(S(=O)(=O)c3ccc(C)cc3)S(=O)(=O)c3ccc(C)cc3)cc2)c1
22 | 16.1 | – | Cc1ccc(S(=O)(=O)Oc2ccc(NCc3cccc(Br)c3)cc2)cc1
23 | 31.4 | 29.7 | Cc1ccc(S(=O)(=O)Oc2ccc(N(Cc3cccc([N+](=O)[O-])c3)Cc3cccc([N+](=O)[O-])c3)cc2)cc1
24 | 17.5 | – | Cc1ccc(S(=O)(=O)Oc2ccc(N(Cc3ccc(Br)cc3)Cc3ccc(Br)cc3)cc2)cc1
